US10933056B2, “3-(1H-pyrazol-4-yl)pyridine allosteric modulators of the M4 muscarinic acetylcholine receptor” (Merck Sharp & Dohme Corp., priority 2015, dated 2021)

Molecular target: T1, human M4 muscarinic acetylcholine receptor (Homo sapiens, UniProt P08173)
T1 construct: expressed in transfected cells; host or cells: CHO-K1
T1 sequence (P08173 1-479): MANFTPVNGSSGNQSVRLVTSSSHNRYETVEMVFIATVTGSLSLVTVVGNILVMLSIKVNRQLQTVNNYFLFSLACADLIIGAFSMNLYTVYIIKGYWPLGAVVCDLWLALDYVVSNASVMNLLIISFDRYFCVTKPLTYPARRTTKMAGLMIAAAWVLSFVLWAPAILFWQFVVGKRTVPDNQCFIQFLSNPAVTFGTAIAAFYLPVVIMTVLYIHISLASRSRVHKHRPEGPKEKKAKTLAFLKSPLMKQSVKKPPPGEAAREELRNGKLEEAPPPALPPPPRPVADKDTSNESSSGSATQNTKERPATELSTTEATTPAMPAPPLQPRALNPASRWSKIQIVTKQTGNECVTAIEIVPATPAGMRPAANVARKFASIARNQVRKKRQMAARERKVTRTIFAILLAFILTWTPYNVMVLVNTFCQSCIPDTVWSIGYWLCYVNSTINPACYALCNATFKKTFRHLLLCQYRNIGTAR
Assay: human FLIPR-based M4 PAM assay (calcium mobilization in CHO-K1 cells with human M4 receptor and Gαqi5)
Assay type: cell-based
Settings: inflection point of dose response curve, acetylcholine at 20% of maximum response, FLIPR Tetra, read-out: M4 PAM IP
Protocol: (§1) In a typical experiment the M4 muscarinic acetylcholine receptor modulating activity of the compounds of the present invention was determined in accordance with the following experimental method. CHO-K1 cells stably transfected with human M4 receptor and chimeric G-protein Gαqi5 (Coward P, et al., Analytical Biochemistry, 270:242-248 (1999)) are thawed from liquid N2 storage, resuspended in growth medium, plated in black, clear bottom 384 well plates, and incubated 16-20 hours at 37° C., 5% CO2. On the day of assay, growth medium is removed, the cells are washed 2 times with wash buffer, and cells are incubated in dye loading buffer at 37° C., 5% CO2 for ˜1 hour. Following dye loading the cell plates are placed in a FLIPR Tetra instrument and while monitoring dye fluorescence (excitation […]), 10 uL of test substance at increasing concentrations is added, and fluorescence values are recorded for 4 min. Next, 10 uL of acetylcholine is added (final concentration calculated so as to achieve 20% of the maximum acetycholine response), and the fluorescence reading is continued for 3.5 min. In some cases, a third addition of acetylcholine (final concentration calculated to achieve 70% of the maximal acetylcholine response) is performed. The resulting dose response curves are fit to a 4 parameter logistic equation and the final result is determined as the inflection point (IP) of the curve
as §1, with “CHO-K1” for “In a typical experiment the M4 muscarinic acetylcholine receptor modulating activity of the compounds of the present invention was determined in accordance with the following experimental method. CHO-K1”, “Gαqi5” for “Gαqi5 (Coward P, et al., Analytical Biochemistry, 270:242-248 (1999))”, “performed.” for “performed. The resulting dose response curves are fit to a 4 parameter logistic equation and the final result is determined as the inflection point (IP) of the curve”

SMILES: Cc1ccc(-c2cnn(CC3(C)CCCC3)c2)c(-c2ccc3c(c2)C(=O)N(C)C3)n1 [Example 27, 2-methyl-6-(6-methyl-3-(1-((1-methylcyclopentyl)methyl)-1H-pyrazol-4-yl)pyridin-2-yl)isoindolin-1-one]
- EC50: 11 nM

SMILES: Cc1ccc(-c2cnn(CC3(C)CCCC3)c2)c(-c2ccc3c(c2)C(=O)N(C2CC2)C3)n1 [Example 28, 2-cyclopropyl-6-(6-methyl-3-(1-((1-methylcyclopentyl)methyl)-1H-pyrazol-4-yl)pyridin-2-yl)isoindolin-1-one]
- EC50: 10 nM

SMILES: CC1(Cn2cc(-c3c(F)ccnc3-c3ccc4c(c3)C(=O)N(CC3CC3)C4)cn2)CCCC1 [Example 29, 2-(cyclopropylmethyl)-6-(4-fluoro-3-(1-((1-methylcyclopentyl)methyl)-1H-pyrazol-4-yl)pyridin-2-yl)isoindolin-1-one]
- EC50: 13 nM

SMILES: Cc1ccc(-c2cnn(CC3(C)CCCC3)c2F)c(-c2ccc3c(c2)C(=O)N(CC2CC2)C3)n1 [Example 30, 2-(cyclopropylmethyl)-6-(3-(5-fluoro-1-((1-methylcyclopentyl)methyl)-1H-pyrazol-4-yl)-6-methylpyridin-2-yl)isoindolin-1-one]
- EC50: 18 nM

SMILES: CN1Cc2ccc(-c3nccc(C#N)c3-c3cnn(CC4(C)CCCC4)c3)cc2C1=O [Example 31, 2-(2-methyl-3-oxoisoindolin-5-yl)-3-(1-((1-methylcyclopentyl)methyl)-1H-pyrazol-4-yl)isonicotinonitrile]
- EC50: 74 nM

SMILES: CC1(Cn2cc(-c3ccc(C#N)nc3-c3ccc4c(c3)C(=O)N(CC3CC3)C4)cn2)CCCC1 [Example 32, 6-(2-(cyclopropylmethyl)-3-oxoisoindolin-5-yl)-5-(1-((1-methylcyclopentyl)methyl)-1H-pyrazol-4-yl)picolinonitrile]
- EC50: 7 nM

SMILES: CC1(Cn2cc(-c3ccc(C#N)nc3-c3ccc4c(c3)C(=O)N(C3CC3)C4)cn2)CCCC1 [Example 33, 6-(2-cyclopropyl-3-oxoisoindolin-5-yl)-5-(1-((1-methylcyclopentyl)methyl)-1H-pyrazol-4-yl)picolinonitrile]
- EC50: 7 nM

SMILES: CC1(Cn2cc(-c3ccc(C#N)nc3-c3ccc4c(c3)C(=O)NC4)cn2)CCCC1 [Example 34, 5-(1-((1-methylcyclopentyl)methyl)-1H-pyrazol-4-yl)-6-(3-oxoisoindolin-5-yl)picolinonitrile]
- EC50: 15 nM

SMILES: COC(=O)CN1Cc2ccc(-c3nc(C#N)ccc3-c3cnn(CC4(C)CCCC4)c3)cc2C1=O [Example 34A, methyl 2-(6-(6-cyano-3-(1-((1-methylcyclopentyl)-methyl)-1H-pyrazol-4-yl)pyridin-2-yl)-1-oxoisoindolin-2-yl)acetate]
- EC50: 44 nM

SMILES: CC1(Cn2cc(-c3ccc(F)nc3-c3ccc4c(c3)C(=O)N(C3CC3)C4)cn2)CCCC1 [Example 35, 2-cyclopropyl-6-(6-fluoro-3-(1-((1-methylcyclopentyl)methyl)-1H-pyrazol-4-yl)pyridin-2-yl)isoindolin-1-one]
- EC50: 9 nM

SMILES: CN1Cc2ccc(-c3nc(F)ccc3-c3cnn(CC4(C)CCCC4)c3)cc2C1=O [Example 36, 6-(6-fluoro-3-(1-((1-methylcyclopentyl)methyl)-1H-pyrazol-4-yl)pyridin-2-yl)-2-methylisoindolin-1-one]
- EC50: 6 nM

SMILES: CC1(Cn2cc(-c3ccc(F)nc3-c3ccc4c(c3)C(=O)NC4)cn2)CCCC1 [Example 37, 6-(6-fluoro-3-(1-((1-methylcyclopentyl)methyl)-1H-pyrazol-4-yl)pyridin-2-yl)isoindolin-1-one]
- EC50: 7 nM

SMILES: Cc1cc(-c2cnn(CC3(C)CCCC3)c2)c(-c2ccc3c(c2)C(=O)N(C)C3)nc1Cl [Example 38, 6-(6-chloro-5-methyl-3-(1-((1-methylcyclopentyl)methyl)-1H-pyrazol-4-yl)pyridin-2-yl)-2-methylisoindolin-1-one]
- EC50: 33 nM

SMILES: CN1Cc2ccc(-c3nc4c(cc3-c3cnn(CC5(C)CCCC5)c3)CCC4)cc2C1=O [Example 39, 2-methyl-6-(3-(1-((1-methylcyclopentyl)methyl)-1H-pyrazol-4-yl)-6,7-dihydro-5H-cyclopenta[b]pyridin-2-yl)isoindolin-1-one]
- EC50: 37 nM

SMILES: CC1(Cn2cc(-c3cc4c(nc3-c3cnc5c(c3)C(=O)NC5)[C@H](F)CC4)cn2)CCCC1 [Example 39A, (R)-3-(7-fluoro-3-(1-((1-methylcyclopentyl)methyl)-1H-pyrazol-4-yl)-6,7-dihydro-5H-cyclopenta[b]pyridin-2-yl)-6,7-dihydro-5H-pyrrolo[3,4-b]pyridin-5-one]
- EC50: 58 nM

SMILES: CC1(Cn2cc(-c3cc4c(nc3-c3cnc5c(c3)C(=O)NC5)[C@@H](F)CC4)cn2)CCCC1 [Example 39B, (S)-3-(7-fluoro-3-(1-((1-methylcyclopentyl)methyl)-1H-pyrazol-4-yl)-6,7-dihydro-5H-cyclopenta[b]pyridin-2-yl)-6,7-dihydro-5H-pyrrolo[3,4-b]pyridin-5-one]
- EC50: 25 nM

SMILES: Cc1cc(-c2cnn(CC3(C)CCCC3)c2)c(-c2ccc3c(c2)C(=O)NC3)nc1Cl [Example 40, 6-(6-chloro-5-methyl-3-(1-((1-methylcyclopentyl)methyl)-1H-pyrazol-4-yl)pyridin-2-yl)isoindolin-1-one]
- EC50: 49 nM

SMILES: CN1Cc2ccc(-c3nc(CO)c(F)cc3-c3cnn(CC4(C)CCCC4)c3)cc2C1=O [Example 41, 6-(5-fluoro-6-(hydroxymethyl)-3-(1-((1-methylcyclopentyl)methyl)-1H-pyrazol-4-yl)pyridin-2-yl)-2-methylisoindolin-1-one]
- EC50: 64 nM

SMILES: CC1(Cn2cc(-c3ccc(C#N)nc3-c3ccc4c(c3)C(=O)N(CCF)C4)cn2)CCCC1 [Example 42, 6-(2-(2-fluoroethyl)-3-oxoisoindolin-5-yl)-5-(1-((1-methylcyclopentyl)methyl)-1H-pyrazol-4-yl)picolinonitrile]
- EC50: 37 nM

SMILES: CN1Cc2ccc(-c3nc(C#N)ccc3-c3cnn(CC4(C)CCCC4)c3F)cc2C1=O [Example 43, 5-(5-fluoro-1-((1-methylcyclopentyl)methyl)-1H-pyrazol-4-yl)-6-(2-methyl-3-oxoisoindolin-5-yl)picolinonitrile]
- EC50: 20 nM

SMILES: CC1(Cn2ncc(-c3ccc(C#N)nc3-c3ccc4c(c3)C(=O)NC4)c2F)CCCC1 [Example 43A, 5-(5-fluoro-1-((1-methylcyclopentyl)methyl)-1H-pyrazol-4-yl)-6-(3-oxoisoindolin-5-yl)picolinonitrile]
- EC50: 26 nM

SMILES: CC1(Cn2ncc(-c3ccc(C#N)nc3-c3ccc4c(c3)C(=O)N(C3CC3)C4)c2F)CCCC1 [Example 44, 6-(2-cyclopropyl-3-oxoisoindolin-5-yl)-5-(5-fluoro-1-((1-methylcyclopentyl)methyl)-1H-pyrazol-4-yl)picolinonitrile]
- EC50: 54 nM

SMILES: CC1(Cn2ncc(-c3ccc(C#N)nc3-c3ccc4c(c3)C(=O)N(CC3CC3)C4)c2F)CCCC1 [Example 45, 6-(2-(cyclopropylmethyl)-3-oxoisoindolin-5-yl)-5-(5-fluoro-1-((1-methylcyclopentyl)methyl)-1H-pyrazol-4-yl)picolinonitri1e]
- EC50: 41 nM

SMILES: CN1Cc2ccc(-c3nc(C#N)c(F)cc3-c3cnn(CC4(C)CCCC4)c3)cc2C1=O [Example 47, 3-fluoro-6-(2-methyl-3-oxoisoindolin-5-yl)-5-(1-((1-methylcyclopentyl)methyl)-1H-pyrazol-4-yl)picolinonitrile]
- EC50: 20 nM

SMILES: CC1(Cn2cc(-c3cc(F)c(C#N)nc3-c3ccc4c(c3)C(=O)N(CC3CC3)C4)cn2)CCCC1 [Example 48, 6-(2-(cyclopropylmethyl)-3-oxoisoindolin-5-yl)-3-fluoro-5-(1-((1-methylcyclopentyl)methyl)-1H-pyrazol-4-yl)picolinonitrile]
- EC50: 76 nM

SMILES: CC1(Cn2cc(-c3cc4c(nc3-c3ccc5c(c3)C(=O)N(CCF)C5)CCC4)cn2)CCCC1 [Example 49, 2-(2-fluoroethyl)-6-(3-(1-((1-methylcyclopentyl)methyl)-1H-pyrazol-4-yl)-6,7-dihydro-5H-cyclopenta[b]pyridin-2-yl)isoindolin-1-one]
- EC50: 32 nM
